# Results as given in US8455501B2, “N-(5-cycloalkyl)-pyridin-3-yl carboxamides” (Hoffmann-La Roche Inc, priority 2011, dated 2013).
# Legend:
# [1] = system: ABCA1 protein; assay: Detection of upregulation of ABCA1 protein in cells (ApoA-I binding, High Content Image Analysis); format: cell-based; settings: THP-1 macrophage cells, 24 hrs with compound
# Method: Detection of upregulation of ABCA1 protein in cells
# The ability of compounds of the invention to increase the level of ABCA1 protein is determined in replicate cultures of THP-1 macrophage cells in 96-well microplates. Cells are plated at an initial density of 100,000 cells/well in 100 μl medium and differentiated to adherent macrophages with the addition of PMA (100 nM) for 68 hrs in 10% fetal bovine serum, 3 μl/L of b-mercaptoethanol, RPMI-1640 medium. Then, cells are incubated with RPMI-1640 medium containing 1% FCS, 25 μg/ml acetylated LDL, for 24 hours at 37° C. Following incubation with acetylated LDL, cells are washed twice with 50 μl PBS and incubated with 100 μl of RPMI-1640 medium containing the compound of interest solubilized in DMSO for an additional 24 hrs. The final DMSO concentration in presence of cells is maintained at 0.5%. ApoA-I binding assay using High Content Image Analysis is initiated by replacing with fresh medium, RPMI without Phenol Red, 0.2% BSA containing AlexaFluor®647 labeled ApoA-I for 2 h/37° C./5% CO2. Then, cells are fixed with 4% Formaldehyde in PBS (15 min, RT). Following Nuclei are stained with Hoechst solution (3 μM PBS) and Cytoplasm with Cell Mask Blue (2 μg/ml PBS), 15 min, RT. Finally the stained cells are fixed with a second round of formaldehyde treatment. Fixed stained cells are washed and kept in PBS at 4° C. and can be read immediately until one month after preparation.
# The Alexa Fluor 647-labeled Apolipoprotein A-I (20 nM) was prepared as follows: Human recombinant Apolipoprotein A-I (ApoA-I) was exchanged to a buffer of 0.02 M NaHCO3 at pH 8.2 on an NAP desalting column (GE Healthcare) and brought to a concentration to 40 μM (1.13 mg/ml) by adjustment with the same buffer. The ApoA-I was fluorescently labeled by incubation with Alexa Fluor carboxylic acid succimidyl ester (Alexa Fluor 647, Invitrogen A-20006) at a 2:1 molar ratio (Alexa to ApoA-I) for 1 h under shaking at RT. The remaining unconjugated label was removed by buffer exchange to 0.02M NaHCO3 at pH 8.2.
# Imaging and data collection were performed on an OPERA confocal microplate imaging reader using a 20× water immersion objective and UV360 or 405 laser to identify the cell nuclei and a 635 laser to identify the fluorescent ApoA-I. Eight fields of view are captured per well. Image capture and analysis was performed with the Acapella software. Background fluorescence detected in control wells without ApoA-I was subtracted.
# Using XLfit3 program (ID Business Solutions Ltd. UK), the model 205 for Dose Response One Site is used to calculate the EC50 values. […] Particularly, the compounds of the present invention have EC50 values in a range of 0.1 μM to 3 μM.
# [2] = target: T1, human CB1 receptor (Homo sapiens, UniProt P21554); assay: CB1 receptor affinity, displacement of [3H]-CP-55,940; format: binding; settings: HEK cell membranes, radioligand [3H]-CP-55,940
# T1 construct: expressed in transfected cells; host or cells: human embryonic kidney (HEK) cells, Semliki Forest Virus system, membrane preparation
# Method: (§1) CB1 and CB2 Receptor Affinity
# (§2) The affinity of the compounds of the invention for cannabinoid receptors was determined using membrane preparations of human embryonic kidney (HEK) cells in which the human CB1 receptor is transiently transfected using a Semliki Forest Virus system in conjunction with [3H]-CP-55,940 as radioligand. After incubation of freshly prepared cell membrane preparation with the [^3H]-ligand, with or without addition of compounds of the invention, separation of bound and free ligand was performed by filtration over glass fiber filters. Radioactivity on the filter was measured by scintillation counting.
# (§3) The ability of the compounds to displace the radioligand [^3H]-CP-55,940 was measured at a concentration of 10 μM and values provided as [% inhibition @10 μM] both for the CB1 and CB2 receptor assay, The lower % inhibition is, the lower the likelihood of side effects based on CB1 or CB2 receptor inhibition is.
# [3] = target: T2, human CB2 receptor (Homo sapiens, UniProt P34972); assay: CB2 receptor affinity, displacement of [3H]-CP-55,940; format: binding; settings: HEK cell membranes, radioligand [3H]-CP-55,940
# T2 construct: expressed in transfected cells; host or cells: human embryonic kidney (HEK) cells, Semliki Forest Virus system, membrane preparation
# Method: as §1
# as §2, with “cannabinoid CB2” for “cannabinoid”, “CB2” for “CB1”, “[^3H]-CP-55,940” for “[3H]-CP-55,940”
# as §3
# T1 sequence (P21554 whole entry): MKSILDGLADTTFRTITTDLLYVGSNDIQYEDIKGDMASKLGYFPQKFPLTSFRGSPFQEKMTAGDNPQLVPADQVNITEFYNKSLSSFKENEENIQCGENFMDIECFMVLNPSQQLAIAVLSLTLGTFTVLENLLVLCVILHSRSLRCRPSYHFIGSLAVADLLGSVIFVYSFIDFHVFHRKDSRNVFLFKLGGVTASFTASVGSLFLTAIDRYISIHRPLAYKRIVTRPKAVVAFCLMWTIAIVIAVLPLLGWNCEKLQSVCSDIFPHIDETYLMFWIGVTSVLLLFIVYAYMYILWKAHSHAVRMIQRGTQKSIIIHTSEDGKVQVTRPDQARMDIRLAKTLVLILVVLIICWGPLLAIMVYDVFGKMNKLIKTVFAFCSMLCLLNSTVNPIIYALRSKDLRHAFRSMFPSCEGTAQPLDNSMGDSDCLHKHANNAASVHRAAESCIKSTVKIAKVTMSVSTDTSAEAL
# T2 sequence (P34972 whole entry): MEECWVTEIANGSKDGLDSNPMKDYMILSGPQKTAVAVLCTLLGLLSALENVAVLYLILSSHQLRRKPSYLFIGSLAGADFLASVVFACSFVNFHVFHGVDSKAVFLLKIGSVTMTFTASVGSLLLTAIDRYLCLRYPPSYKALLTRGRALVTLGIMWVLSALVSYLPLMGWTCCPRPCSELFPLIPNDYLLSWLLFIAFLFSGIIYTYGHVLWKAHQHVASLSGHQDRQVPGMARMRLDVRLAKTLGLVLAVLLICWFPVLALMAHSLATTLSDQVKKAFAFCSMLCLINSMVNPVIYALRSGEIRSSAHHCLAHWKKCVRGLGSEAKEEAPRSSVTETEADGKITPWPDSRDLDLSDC
inhibition at 10 µM [2],inhibition at 10 µM [3],SMILES,% increase of ABCA1 at 3 μM [1]
26%,0%,"Cc1ocnc1C(=O)Nc1cnc(OCC(F)(F)F)c(C2CCCC2)c1 [Example 3, 5-methyl-oxazole-4-carboxylic acid [5-cyclopentyl-6-(2,2,2-trifluoro-ethoxy)-pyridin-3-yl]-amide]",>45% @ 3 μM
13%,-8%,"Cc1ocnc1C(=O)Nc1cnc(OCC(F)(F)F)c(C2CCCCC2)c1 [Example 10, 5-methyl-oxazole-4-carboxylic acid [5-cyclohexyl-6-(2,2,2-trifluoro-ethoxy)-pyridin-3-yl]-amide]",>45% @ 3 μM
21%,-12%,"O=C(Nc1cnc(OCC(F)(F)F)c(C2CCCC2)c1)c1cncnc1 [Example 7, pyrimidine-5-carboxylic acid [5-cyclopentyl-6-(2,2,2-trifluoro-ethoxy)-pyridin-3-yl]-amide]",>45% @ 3 μM
19%,-13%,"COc1cncc(C(=O)Nc2cnc(OCC(F)(F)F)c(C3CCCCC3)c2)c1 [Example 12, N-[5-cyclohexyl-6-(2,2,2-trifluoro-ethoxy)-pyridin-3-yl]-5-methoxy-nicotinamide]",>45% @ 3 μM
28%,-13%,"O=C(Nc1cnc(OCC(F)(F)F)c(C2CCCCC2)c1)c1cccnc1 [Example 8, N-[5-cyclohexyl-6-(2,2,2-trifluoro-ethoxy)-pyridin-3-yl]-nicotinamide]",>45% @ 3 μM
38%,-13%,"O=C(Nc1cnc(OCC(F)(F)F)c(C2CCCCC2)c1)c1ccccc1 [Example 13, N-[5-cyclohexyl-6-(2,2,2-trifluoro-ethoxy)-pyridin-3-yl]-benzamide]",>45% @ 3 μM
40%,-5%,"O=C(Nc1cnc(OCC(F)(F)F)c(C2CCCC2)c1)c1ccccc1 [Example 6, N-[5-cyclopentyl-6-(2,2,2-trifluoro-ethoxy)-pyridin-3-yl]-benzamide]",>45% @ 3 μM
33%,3%,"O=C(Nc1cnc(OCC(F)(F)F)c(C2CCCCC2)c1)c1ccccn1 [Example 11, pyridine-2-carboxylic acid [5-cyclohexyl-6-(2,2,2-trifluoro-ethoxy)-pyridin-3-yl]-amide]",>45% @ 3 μM
22%,-12%,"Cc1cc(C(=O)Nc2cnc(OCC(F)(F)F)c(C3CCCC3)c2)[nH]n1 [Example 2, 5-methyl-2H-pyrazole-3-carboxylic acid [5-cyclopentyl-6-(2,2,2-trifluoro-ethoxy)-pyridin-3-yl]-amide]",>45% @ 3 μM
27%,-9%,"Cc1cc(C(=O)Nc2cnc(OCC(F)(F)F)c(C3CCCCC3)c2)[nH]n1 [Example 9, 5-methyl-2H-pyrazole-3-carboxylic acid [5-cyclohexyl-6-(2,2,2-trifluoro-ethoxy)-pyridin-3-yl]-amide]",>45% @ 3 μM
28%,-8%,"O=C(Nc1cnc(OCC(F)(F)F)c(C2CCCC2)c1)c1ccccn1 [Example 5, pyridine-2-carboxylic acid [5-cyclopentyl-6-(2,2,2-trifluoro-ethoxy)-pyridin-3-yl]-amide]",>45% @ 3 μM
4%,-9%,"COc1cncc(C(=O)Nc2cnc(OCC(F)(F)F)c(C3CCCC3)c2)c1 [Example 1, N-[5-cyclopentyl-6-(2,2,2-trifluoro-ethoxy)-pyridin-3-yl]-5-methoxy-nicotinamide]",>45% @ 3 μM
34%,2%,"O=C(Nc1cnc(OCC(F)(F)F)c(C2CCCC2)c1)c1cccnc1 [Example 4, N-[5-cyclopentyl-6-(2,2,2-trifluoro-ethoxy)-pyridin-3-yl]-nicotinamide]",>45% @ 3 μM
